The values that follow come from patent US8362064B2, “Sulfonamide compounds for the treatment of respiratory disorders” (Pulmagen Theraputics (Inflammation) Limited, priority 2008, dated 2013).

Data set [1] addresses T1, human PPARγ (Homo sapiens, UniProt P37231).
T1 construct: expressed in transfected cells; host or cells: HEK-293 (Human Embryonic Kidney) cells
T1 sequence (P37231 1-505): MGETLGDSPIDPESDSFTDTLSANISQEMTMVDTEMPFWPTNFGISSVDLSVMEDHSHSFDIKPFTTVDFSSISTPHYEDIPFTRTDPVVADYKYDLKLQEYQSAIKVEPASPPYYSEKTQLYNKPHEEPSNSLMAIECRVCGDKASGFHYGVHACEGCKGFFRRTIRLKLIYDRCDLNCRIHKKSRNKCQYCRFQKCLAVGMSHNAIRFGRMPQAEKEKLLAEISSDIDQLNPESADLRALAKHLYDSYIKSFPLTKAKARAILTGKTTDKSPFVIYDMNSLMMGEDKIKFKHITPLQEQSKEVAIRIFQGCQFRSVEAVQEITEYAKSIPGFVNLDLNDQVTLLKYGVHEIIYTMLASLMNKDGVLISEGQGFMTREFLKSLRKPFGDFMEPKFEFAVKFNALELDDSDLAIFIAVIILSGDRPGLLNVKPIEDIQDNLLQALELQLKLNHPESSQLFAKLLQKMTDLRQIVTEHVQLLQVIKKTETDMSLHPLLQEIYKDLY
The data set is described as follows: Human PPAR gamma agonist activity, GAL4-luciferase transactivation in transfected HEK-293 cells. The following applies: fold increase in gene transactivation (luciferase), 18 hours incubation, classes at 10 μM or 1 μM. It counts as cell-based. On the procedure:
HEK-293 (Human Embryonic Kidney) cells were seeded at a density of 2.8×10^5 cells/well in a 6 well plate in DMEM +10% delipidated FBS medium and incubated at 37° C., 5% CO2. At 70-80% confluency cells were transfected with human pCDNA3.1E˜PPARγ+pGL2˜GAL4x5˜Luc+pADV plasmids for 3 hours (ratio 2:0.25:1.25 μg/well). The transfection medium was then replaced with fresh medium and cells were incubated for 48 hours.
Varying final concentrations of compounds (vehicle=0.1% DMSO) of the invention were prepared in medium (50 μl/well) and added to the wells in a 96 well plate. Transfected cells were harvested and pelleted by centrifugation. The cell pellet was resuspended in medium and cells counted. 10,000 cells/well were added to the 96 well plate containing compounds of the invention and incubated for 18 hours. Luminescence produced following agonism of the PPAR gamma receptor was determined using Packard luciferase substrate reagent (100 μl/well). Light emission was quantified by counting SPC mode using a Top Count. Fold activation was calculated using the following formula: […]
All compounds show activity as PPAR gamma agonists at 30 μM. Key for relative activity: • *<8 fold increase in gene transactivation with 10 μM • **>8 fold increase in gene transactivation with 10 μM • ***>8 fold increase in gene transactivation with 1 μM.

Data set [2] deals with TS induced BAL neutrophil influx. The data set is described as follows: Pre-clinical mouse model of COPD inflammation (tobacco smoke induced pulmonary inflammation), BAL neutrophil counts. The format is in vivo. As to conditions: mice. On the procedure: Protocols for the exposure of mice to TS, obtaining bronchoalveolar lavage (BAL), preparation of cytospin slides for differential cell counts are as outlined below.
In this exposure protocol, mice were exposed in groups of 5 in individual clear polycarbonate chambers (27 cm×16 cm×12 cm). The TS from the cigarettes was allowed to enter the exposure chambers at a flow rate of 100 mL/min. In order to minimize any potential problems caused by repeated exposure to a high level of TS (6 cigarettes), the exposure of the mice to TS was increased gradually over the exposure period to a maximum of 6 cigarettes. The exposure schedule used for 4 days was as follows:
A further group of mice was exposed to air on a daily basis for an equivalent length of time as controls (no TS exposure).
Bronchoalveolar lavage was performed as follows: the trachea was cannulated using a Portex nylon intravenous cannula (pink luer fitting) shortened to approximately 8 mm. Phosphate buffered saline (PBS) was used as the lavage fluid. A volume of 0.4 mL was gently instilled and withdrawn 3 times using a 1 mL syringe and then placed in an Eppendorf tube and kept on ice prior to subsequent determinations.
Lavage fluid was separated from cells by centrifugation and the supernatant decanted and frozen for subsequent analysis. The cell pellet was re-suspended in a known volume of PBS and total cell numbers calculated by counting a stained (Turks stain) aliquot under a microscope using a haemocytometer.
The residual cell pellet was diluted to approximately 10^5 cells per mL. A volume of 500 μL was placed in the funnel of a cytospin slide and centrifuged for 8 min at 800 rpm. The slide was air dried and stained using ‘Kwik-Diff’ solutions (Shandon) as per the proprietary instructions. When dried and cover-slipped, differential cells were counted using light microscopy. Up to 400 cells were counted by unbiased operator using light microscopy. Cells were differentiated using standard morphometric techniques.
Mice were dosed intra-nasally (surrogate for oral inhalation) with vehicle (0.2% tween 80 in saline), Example 1 (0.1 mg/kg), Example 10 (0.1 mg/kg), Example 10 (0.03 mg/kg), or Example 10 (0.01 mg/kg), at 3 hours prior to tobacco smoke exposure each day. The control group of mice received vehicle 3 hrs prior to being exposed to air daily for a maximum of 50 minutes per day. BAL was performed 24 h following the final TS exposure.
In a separate experiment, mice were dosed intra-nasally (surrogate for oral inhalation) with either vehicle (0.2% tween 80 in saline), Example 7 (0.1 mg/kg), Compound 7 (0.03 mg/kg), Example 15 (0.1 mg/kg), or Example 15 (0.03 mg/kg), 1 hour prior to tobacco smoke exposure each day. The control group of mice received vehicle 1 hr prior to being exposed to air daily for a maximum of 50 minutes per day. BAL was performed 24 h following the final TS exposure.
All results are presented as individual data points for each animal and the mean value was calculated for each group. Since tests for normality were positive the data was subjected to a one way analysis of variance test (ANOVA), followed by a Bonferroni correction for multiple comparisons in order to test for significance between treatment groups. A “p” value of <0.05 was considered to be statistically significant. Percentage inhibitions were automatically calculated within the Excel spreadsheets for the cell data using the formula below:
[formula] Inhibition data for other parameters were calculated manually using the above formula.

As a reminder, the melting point is the temperature of the solid-liquid transition. `Cc1ccc(-n2cc(Oc3ccc(NS(=O)(=O)c4ccc(Cl)cc4Cl)cc3)cn2)cc1` [Example 1, 2,4-dichloro-N-[4-(1-p-tolyl-1H-pyrazol-4-yloxy)-phenyl]benzene sulfonamide] had a melting point of 152 to 153 °C. The PPARγ agonist activity entry in data set [1] is recorded as “*** (>8 fold increase in gene transactivation with 1 μM)”. Further, the “Inhibition of TS induced BAL neutrophil influx” value in data set [2] (0.1 mg/kg intra-nasally 3 hours prior to TS exposure each day for 4 days, BAL 24 h after final TS) was 72%. In addition, the “TS induced influx of neutrophils in the BAL (in words)” value in data set [2] (administered by a surrogate route for inhalation (intra-nasal)) is given as “significantly inhibit”.
